Data taken from US20200022370A1, “MICROBIOCIDAL OXADIAZOLE DERIVATIVES” (SYNGENTA PARTICIPATIONS AG, priority 2016, published 2020).

Legend:
[1] = tested on: Puccinia recondita f. Sp. Tritici; assay: Puccinia recondita f. sp. tritici / wheat / leaf disc preventative (brown rust); format: in vivo; conditions: foliar, 200 ppm in the applied formulation, wheat leaf segments cv. Kanzler, inoculated 1 day after application, vs untreated, 7 to 9 days after application, read-out: disease control
Procedure, shortened: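 Segments of cv. Kanzler wheat on agar received a spray of compound formulation diluted in water and were inoculated with spores one day afterwards. Kept at 19° C and 75% rh under 12 h/12 h light; disease control relative to untreated checks rated at 7–9 days post-application.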

[2] = tested on: Puccinia recondita f. Sp. Tritici; assay: Puccinia recondita f. sp. tritici / wheat / leaf disc curative (brown rust); format: in vivo; conditions: foliar, 200 ppm in the applied formulation, wheat leaf segments cv. Kanzler, compound applied 1 day after inoculation, vs untreated, 6 to 8 days after application, read-out: disease control
Procedure, shortened: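 Wheat leaf segments (cv. Kanzler) on agar inoculated with brown rust spores, held dark at 19 °C/75% RH, then sprayed 1 day post-inoculation with formulated compound diluted in water (curative). Incubated at 19 °C/75% RH, 12 h light/12 h dark; percent disease control versus untreated scored 6–8 days after application.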

Phakopsora pachyrhizi = Phakopsora pachyrhizi / soybean / leaf disc preventative (Asian soybean rust); format: in vivo; conditions: foliar, 200 ppm in the applied formulation, soybean leaf disks, inoculated one day after application, vs untreated, 12 to 14 days after application, read-out: disease control
Procedure, shortened: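 Soybean leaf discs on water agar sprayed with formulated compound diluted in water, then inoculated one day later with spore suspension on the lower surface. Held 24-36 h dark at 20 °C, 75% rh, then 12 h light/day; percent disease control versus untreated scored 12-14 days after application.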

[3] = tested on: Glomerella lacenarium (Colletotrichum lacenarium); assay: Glomerella lacenarium (Colletotrichum lacenarium) liquid culture / cucumber / preventative (anthracnose); format: cell-based; conditions: 20 ppm, liquid culture in PDB, 24° C., inhibition of growth measured photometrically 3 to 4 days after application, vs untreated, read-out: disease control
Procedure, shortened: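 Cryopreserved conidia in potato dextrose broth were added to test compound in a 96-well microtiter plate and incubated at 24 °C. Growth inhibition read photometrically 3–4 days after application, as percent activity versus untreated check.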

Uromyces viciae-fabae = Uromyces viciae-fabae / field bean / leaf disc preventative (faba-bean rust); format: in vivo; conditions: foliar, 288 h, 100 ppm in the applied formulation, field bean leaf discs, inoculated two hours after application, vs untreated, 12 days after application, read-out: disease control
Protocol: Leaf disks or leaf segments of various plant species are cut from plants grown in a greenhouse. The cut leaf disks or segments are placed in multiwell plates (24-well format) onto water agar. The leaf disks are sprayed with a test solution before (preventative) or after (curative) inoculation. Compounds to be tested are prepared as DMSO solutions (max. 10 mg/ml) which are diluted to the appropriate concentration with 0.025% Tween20 just before spraying. The inoculated leaf disks or segments are incubated under defined conditions (temperature, relative humidity, light, etc.) according to the respective test system. A single evaluation of disease level is carried out 3 to 14 days after inoculation, depending on the pathosystem. Percent disease control relative to the untreated check leaf disks or segments is then calculated.
Example 5: Fungicidal Activity Against Uromyces viciae-fabael Field Bean/Leaf Disc Preventative (Faba-Bean Rust)
Field bean leaf discs are placed on water agar in multiwell plates (96-well format) and 10 μl of the Formulated test compound diluted in acetone and a spreader pipetted onto the leaf disc. Two hours after application leaf discs are inoculated by spraying a spore suspension on the lower leaf surface. The leaf discs are incubated in a climate cabinet at 22° C. with 18 hour day and 70% relative humidity. The activity of a compound is assessed as percent disease control compared to untreated when an appropriate level of disease damage appears in untreated check leaf disks (12 days after application).
The following compounds at 100 ppm in the applied Formulation give at least 80% disease control in this test when compared to untreated control leaf discs under the same conditions, which show extensive disease development.

Row | SMILES | pest or weed control at 200 ppm [1] [%] | pest or weed control at 200 ppm [2] [%] | pest or weed control at 200 ppm (Phakopsora pachyrhizi) [%] | inhibition of growth at 20 ppm [3] [%] | melting point [°C] | pest or weed control at 100 ppm (Uromyces viciae-fabae) [%]
1 | COCCN(OC)C(=O)Nc1ccc(-c2noc(C(F)(F)F)n2)cc1 [Compound 1.68, 1-methoxy-1-(2-methoxyethyl)-3-[4-[5-(trifluoromethyl)-1,2,4-oxadiazol-3-yl]phenyl]urea] | ≥ 80 | ≥ 80 | ≥ 80 | ≥ 80 | 89 to 92 | –
2 | CONC(=O)Nc1ccc(-c2noc(C(F)(F)F)n2)cn1 [Compound 1.63, 1-methoxy-3-[5-[5-(trifluoromethyl)-1,2,4-oxadiazol-3-yl]-2-pyridyl]urea] | – | – | ≥ 80 | ≥ 80 | 151 to 154 | –
3 | O=C(Nc1ccc(-c2noc(C(F)(F)F)n2)cc1)c1ccccc1C(F)(F)F [Compound 1.1, 2-(trifluoromethyl)-N-[4-[5-(trifluoromethyl)-1,2,4-oxadiazol-3-yl]phenyl]benzamide] | – | – | ≥ 80 | ≥ 80 | 162 to 163 | ≥ 80
4 | C=C(C)CONC(=O)Nc1ccc(-c2noc(C(F)(F)F)n2)cc1 [Compound 1.70, 1-(2-methylallyloxy)-3-[4-[5-(trifluoromethyl)-1,2,4-oxadiazol-3-yl]phenyl]urea] | ≥ 80 | ≥ 80 | ≥ 80 | ≥ 80 | 134 to 137 | –
5 | COCC(=O)Nc1ccc(-c2noc(C(F)(F)F)n2)cc1 [Compound 2.1, 2-methoxy-N-[4-[5-(trifluoromethyl)-1,2,4-oxadiazol-3-yl]phenyl]acetamide] | ≥ 80 | ≥ 80 | ≥ 80 | ≥ 80 | 93 to 94 | ≥ 80
6 | C=CCONC(=O)Nc1ccc(-c2noc(C(F)(F)F)n2)cc1 [Compound 2.3, 1-allyloxy-3-[4-[5-(trifluoromethyl)-1,2,4-oxadiazol-3-yl]phenyl]urea] | ≥ 80 | ≥ 80 | ≥ 80 | ≥ 80 | 124 to 127 | ≥ 80
7 | CON1CCN(C(=O)Nc2ccc(-c3noc(C(F)(F)F)n3)cc2)CC1 [Compound 1.130, 4-methoxy-N-[4-[5-(trifluoromethyl)-1,2,4-oxadiazol-3-yl]phenyl]piperazine-1-carboxamide] | ≥ 80 | ≥ 80 | ≥ 80 | ≥ 80 | 164 to 167 | –
8 | CCC(=O)N(C)c1ccc(-c2noc(C(F)(F)F)n2)cc1 [Compound 2.17, N-methyl-N-[4-[5-(trifluoromethyl)-1,2,4-oxadiazol-3-yl]phenyl] propanamide] | ≥ 80 | ≥ 80 | ≥ 80 | ≥ 80 | 78 to 86 | –
9 | CONC(=O)Nc1ccc(-c2noc(C(F)(F)F)n2)cc1 [Compound 2.30, 1-methoxy-3-[4-[5-(trifluoromethyl)-1,2,4-oxadiazol-3-yl]phenyl]urea] | ≥ 80 | – | – | ≥ 80 | 152 to 155 | –
10 | C=C(C)CON(C)C(=O)Nc1ccc(-c2noc(C(F)(F)F)n2)cc1 [Compound 1.131, 1-methyl-1-(2-methylallyloxy)-3-[4-[5-(trifluoromethyl)-1,2,4-oxadiazol-3-yl]phenyl]urea] | ≥ 80 | ≥ 80 | ≥ 80 | ≥ 80 | 65 to 68 | –
11 | CC(C)(C)NC(=O)CN(C(=O)C1CC1)c1ccc(-c2noc(C(F)(F)F)n2)cc1 [Compound 1.60, N-[2-(tert-butylamino)-2-oxo-ethyl]-N-[4-[5-(trifluoromethyl)-1,2,4-oxadiazol-3-yl]phenyl]cyclopro-panecarboxamide] | – | – | – | ≥ 80 | 110 to 112 | ≥ 80
12 | CCN(OC)C(=O)Nc1ccc(-c2noc(C(F)(F)F)n2)cc1 [Compound 1.67, 1-ethyl-1-methoxy-3-[4-[5-(trifluoromethyl)-1,2,4-oxadiazol-3-yl]phenyl]urea] | ≥ 80 | ≥ 80 | ≥ 80 | ≥ 80 | 113 to 116 | –
13 | O=C(Nc1ccc(-c2noc(C(F)(F)F)n2)cc1)C1CCCO1 (centres unmarked) [Compound 1.41, N-[4-[5-(trifluoromethyl)-1,2,4-oxadiazol-3-yl]phenyl] tetrahydrofuran-2-carboxamide] | ≥ 80 | ≥ 80 | ≥ 80 | ≥ 80 | 115 to 120 | ≥ 80
14 | COCC(=O)N(c1ccc(-c2noc(C(F)(F)F)n2)cc1)C(C)C(=O)NC(C)(C)C (centres unmarked) [Compound 1.62, N-tert-butyl-2-[N-(2-methoxyacetyl)-4-[5-(trifluoromethyl)-1,2,4-oxadiazol-3-yl]anilino] propanamide] | – | – | – | – | 115 to 117 | ≥ 80
15 | O=C(Nc1ccc(-c2noc(C(F)(F)F)n2)cc1)c1cn[nH]c1 [Compound 1.11, N-[4-[5-(trifluoromethyl)-1,2,4-oxadiazol-3-yl]phenyl]-1H-pyrazole-4-carboxamide] | – | – | – | – | 200 to 204 | ≥ 80
16 | CON(C)C(=O)Nc1ccc(-c2noc(C(F)(F)F)n2)cn1 [Compound 1.64, 1-methoxy-1-methyl-3-[5-[5-(trifluoromethyl)-1,2,4-oxadiazol-3-yl]-2-pyridyl]urea] | ≥ 80 | – | – | ≥ 80 | 83 to 87 | –
17 | O=C(Nc1ccc(-c2noc(C(F)(F)F)n2)cn1)c1ccccc1 [Compound 1.46, N-[5-[5-(trifluoromethyl)-1,2,4-oxadiazol-3-yl]-2-pyridyl]benzamide] | – | – | ≥ 80 | – | 172.8 to 174.3 | ≥ 80
18 | O=C(Nc1ccc(-c2noc(C(F)(F)F)n2)cc1)N1CCCCO1 [Compound 2.23, N-[4-[5-(trifluoromethyl)-1,2,4-oxadiazol-3-yl]phenyl]oxazinane-2-carboxamide] | ≥ 80 | ≥ 80 | ≥ 80 | ≥ 80 | 117 to 120 | –
19 | O=C(Nc1ccc(-c2noc(C(F)(F)F)n2)cc1)C(F)(F)F [Compound 2.2, 2,2,2-trifluoro-N-[4-[5-(trifluoromethyl)-1,2,4-oxadiazol-3-yl]phenyl]acetamide] | – | – | – | ≥ 80 | 146 to 147 | ≥ 80
20 | CONC(=O)N(C)c1ccc(-c2noc(C(F)(F)F)n2)cc1 [Compound 1.132, 3-methoxy-1-methyl-1-[4-[5-(trifluoromethyl)-1,2,4-oxadiazol-3-yl]phenyl]urea] | ≥ 80 | ≥ 80 | – | ≥ 80 | 73 to 76 | –
21 | CC(C)=CCONC(=O)Nc1ccc(-c2noc(C(F)(F)F)n2)cc1 [Compound 1.66, 1-(3-methylbut-2-enoxy)-3-[4-[5-(trifluoromethyl)-1,2,4-oxadiazol-3-yl]phenyl]urea] | ≥ 80 | – | – | ≥ 80 | 118 to 121 | –
